The nature of data set [1]: Thrombin infusion as pro-thrombotic challenge. Type of data set: in vivo, rabbit. Conditions: thrombin 10-250 Units; when cardiovascular parameters indicated a thrombotic event. The protocol:
Another experiment was performed with infusion of thrombin (10-250 Units) as pro-thrombotic challenge. Also in this experiment, an increase in exhaled NO was obtained when measurement of cardiovascular parameters indicated an activation of a thrombotic event.

Another data set has as its system NO-production. The experiment in a line: L-NAME pre-treatment (inhibited NO-production) before and during muscle emboli challenge in anaesthetised rabbits (Group 2). Type of data set: in vivo. As for the experimental part:
The experiments were approved by the local animal ethics committee. Male white New Zealand rabbits (n=20, body weight 2.456±0.086 kg) were anaesthetised via an ear vein with sodium pentobarbital, 6 mg ml^−1 in normal saline, 40-60 mg kg^−1. The animals were placed in supine position and tracheotomised just below the cricoid cartilage to allow mechanical ventilation using a tracheal cannula with an outer diameter of 5 mm. The animals were ventilated by a Harvard Apparatus rodent ventilator (model 683, Harvard Apparatus, South Natick, Mass., USA). The ventilator was supplied with NO-free air using a charcoal filter (110×11 cm). Ventilation rate was 40 min^−1 at constant volume where the tidal volume was initially adjusted to keep the end-tidal CO2 at 4.5-5.3% as determined by a ventilatory monitor (Oscar-Oxy, Datex, Helsinki, Finland) sampling gas (150 ml min^−1, 15-20% of minute ventilation) from one of two side-arms connected to the tracheal cannula, and using a de-humidifying tube. The minute ventilation was 0.64-0.96 l min^−1. To the other side arm a pressure transducer (Statham, Hato Rey, Puerto Rico) was connected thus monitoring the insufflation pressure. The gas from the ventilator outlet was led through a switching valve to either of two beakers creating a positive end-expiratory pressure (PEEP) of 1-2 cmH2O or 4-5 cmH2O. During the experiment the gas flow was altered between the lower PEEP (9 min) and the higher PEEP (1 min) with an interval of totally 10 min. A continuous infusion containing glucose (24.3 g l^−1), dextran 70 (26.5 g l^−1), NaHCO3 (6,2 g l^−1), sodium pentobarbital (4.1 g l^−1) and pancuronium bromide ([…]) was administrated at a rate of 5 ml kg^−1 h^−1 via the same ear vein by means of a Terumo STC-521 syringe pump (Terumo Corp., Tokyo, Japan). A heparinised catheter was inserted in the left common carotid artery for blood pressure and heart rate recordings (pressure transducer, Staham, Hato Rey, Puerto Rico), and arterial blood sampling. Another catheter was inserted in the right jugular vein for drug and muscle emboli administration. Body temperature was maintained at 37-38.5° C. by means of a heating pad connected to a thermostat. The muscles from the anterior compartment of the right lower hind limb were resected and placed in normal saline. Hereafter the animals were allowed a 30-60 min intervention-free period to obtain stable circulatory conditions and stable concentrations of expired NO.
NO concentration, in mixed exhaled gas, was continuously measured by means of a chemiluminescence based system (NIOX®, AEROCRINE AB, Solna, Sweden) sampling at 100 ml min^−1 at the end of a mixing chamber connected to the ventilator exhaust. The full mixing of expired air thus measured on was intermittently checked by monitor CO2 concentration in the same chamber. In a few experiments, gas for NO measurement was sampled from the trachea at the same point as for tidal CO2 measurements, thus yielding breath by breath NO concentrations. Calibration was done using certified NO standard gas in nitrogen (AGA Specialgas, Lidingö, Sweden).
The resected muscle tissue was cleared from all visible connective tissue and then homogenized and dissolved in normal saline to a concentration of 0,1 g muscle ml^−1. 50 IE heparin was added to the mixture. The homogenate was filtered through a filter (500 μm) to prevent clotting in the three way stop-cock.
The animals were divided into two groups; 1) one group receiving a high dose (58-120 mg kg^−1) muscle homogenate and 2) a second group receiving the nitric oxide inhibitor L-NAME (30 mg kg^−1) 40 min before challenge with lower doses (30 to 7.5 mg kg^−1) muscle homogenate, since initial pilot experiments indicated a marked enhancement of emboli effects after L-NAME pre-treatment. […]

Where [2] appears, read: Group 2, during L-NAME pre-treatment, time -5 min, before challenge.

This is an account of results in patent US20060057732A1, “Methods in the diagnosis of pulmonary embolism” (Aerocrine AB, priority 2004, published 2006).

Turning to thrombin, the “exhaled NO change” value in data set [1] is given as “increase”.

As for `COC(=O)[C@@H](N)CCCNC(=N)N[N+](=O)[O-]` [L-NAME, N^G-nitro-L-arginine methyl ester], in the data set on NO-production (setting [2]), the PaCO2 came out at 4.3 ± 0.2 kPa, the PaO2 is recorded as 8.6 ± 0.6 kPa and the “pH (arterial)” value stood at 7.50 ± 0.02. Further, in the data set with NO-production (L-NAME 30 mg kg-1, before muscle emboli challenge (time=-5), before L-NAME 4.9±0.1), the “ETCO2 after L-NAME infusion” value worked out at 4.8±0.2 kPa. The “FENO after L-NAME infusion” value with NO-production (L-NAME 30 mg kg-1, before muscle emboli challenge (time=-5), before L-NAME 20.9±1.0 ppb, n=4) is 0 ppb. For the same compound, the “MAP after L-NAME infusion” value in the data set with NO-production (L-NAME 30 mg kg-1, before muscle emboli challenge (time=-5), before L-NAME 105±6) is 121±8.2 cmH2O. Moreover, in the data set with NO-production (L-NAME 30 mg kg-1, before muscle emboli challenge (time=-5), before L-NAME 286±11), the “HR after L-NAME infusion” value is 314±34 beats min^-1. For the same compound, in the data set with NO-production (L-NAME 30 mg kg-1 pre-treatment + muscle emboli infusion, at 4 min, n=4 incl. dead animals), the “ETCO2, lowest observed value” is 2.6±1.1 kPa. Also, the “MAP, first drop” value in the data set with NO-production (L-NAME 30 mg kg-1 pre-treatment + muscle emboli infusion, at 12 min) was found to be 52.4±25.5 cmH2O. In the data set on NO-production (L-NAME 30 mg kg-1 pre-treatment + muscle emboli infusion, at 60 min), the “MAP, lowest observed value” is recorded as 44.4±29.6 cmH2O. In addition, the HR change entry in the data set with NO-production (L-NAME 30 mg kg-1 pre-treatment + muscle emboli infusion, not significant) is recorded as “decreased”. For the same compound, in the data set on NO-production (L-NAME 30 mg kg-1 pre-treatment, 7.5 to 30 mg kg-1 homogenate, four rabbits), the “Survival after muscle emboli infusion” value is reported as “two animals survived 60 min”.
